Test results from US20260097002A1, “METHOD OF TREATMENT AND DEVICE FOR THE IMPROVED BIOAVAILABILITY OF LEUKOTRIENE RECEPTOR ANTAGONISTS” (INTELGENX CORP., priority 2022, published 2026).

Legend:
[1] = Clinical study: plasma pharmacokinetics, film vs Singulair tablet; format: in vivo; conditions: human, oral, 10 mg, clinical trials of the film, read-out: Tmax of plasma levels
Description: We have performed a clinical study of our product to determine the pharmacokinetics of the API loaded into this pharmaceutical platform. […] Singulair® is the marketed formulation of MTL, commonly prescribed for asthma sufferers. It consists of a 10 mg loaded API tablet. The Cmax and Tmax values are listed below, see Table 2. […] These higher values for our films means that we could load less API into the film product and achieve the same Cmax/AUC as the Singulair® reference product. The major difference between the disclosed Intelgenx prototype and Singulair® is the physical state of the MTL once it reaches the stomach. In the Singulair® product, the MTL reaches the stomach in a compressed solid state and thus must solubilize in the stomach under unfavorable conditions. […] The MTL is then transferred to the small intestine via the pylori. Since the MTL is already present as a suspended precipitate, the MTL may more easily reach the small intestine through the leaking pylori. It is well known that the pylori is not leak proof and allows some liquid to flow through even in its closed position. […] In particular, the chewable dosage form is about 1.17 times more bioavailable than the tablet when administered in a fasting subject (compared using available bioavailability date shown in Table 2). […]

plasma proteins = conditions: cited from earlier work
[2] = rats dosed with radiolabeled MTL; cited from earlier work
[3] = MTL in tablet form; cited from earlier work

Tmax [1]: 2 to 4 h
Compound: CC(C)(O)c1ccccc1CC[C@@H](SCC1(CC(=O)O)CC1)c1cccc(/C=C/c2ccc3ccc(Cl)cc3n2)c1 [MTL, Montelukast]
Bound to plasma proteins (plasma proteins): more than 99%
Distribution across the blood-brain barrier [2]: minimal distribution
Time to maximum concentrations in blood stream [3]: 2 to 4 h
